Measured values taken from patent publication US11976083B2, “Inhibitors of peptidylarginine deiminases” (Gilead Sciences, Inc., priority 2020, dated 2024).

Target: T1, human PAD4 (Homo sapiens, UniProt Q9UM07)
T1 construct: human PAD4 (NM_012387), A2-P663, was PCR amplified; His-SUMO (N, cleaved yes); made in house; host or cells: E. coli BL21(DE3)
Assay: In vitro PAD4 BAEE biochemical assay
Conditions: BAEE substrate 3 mM, 5 nM PAD4, 2 mM calcium chloride; geometric mean of multiple experiments
In short: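 Recombinant human PAD4 (5 nM final) with 2 mM CaCl2 was preincubated with compound 30 min at 25 °C in MOPS buffer pH 7.6, then reacted with 3 mM BAEE for 2 h at 25 °C. After EDTA stop, released ammonia was detected by o-phthalaldehyde/DTT fluorescence (ex 405/em 535 nm); IC50 from four-parameter fit, geometric mean.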

T1 sequence (Q9UM07 2-663): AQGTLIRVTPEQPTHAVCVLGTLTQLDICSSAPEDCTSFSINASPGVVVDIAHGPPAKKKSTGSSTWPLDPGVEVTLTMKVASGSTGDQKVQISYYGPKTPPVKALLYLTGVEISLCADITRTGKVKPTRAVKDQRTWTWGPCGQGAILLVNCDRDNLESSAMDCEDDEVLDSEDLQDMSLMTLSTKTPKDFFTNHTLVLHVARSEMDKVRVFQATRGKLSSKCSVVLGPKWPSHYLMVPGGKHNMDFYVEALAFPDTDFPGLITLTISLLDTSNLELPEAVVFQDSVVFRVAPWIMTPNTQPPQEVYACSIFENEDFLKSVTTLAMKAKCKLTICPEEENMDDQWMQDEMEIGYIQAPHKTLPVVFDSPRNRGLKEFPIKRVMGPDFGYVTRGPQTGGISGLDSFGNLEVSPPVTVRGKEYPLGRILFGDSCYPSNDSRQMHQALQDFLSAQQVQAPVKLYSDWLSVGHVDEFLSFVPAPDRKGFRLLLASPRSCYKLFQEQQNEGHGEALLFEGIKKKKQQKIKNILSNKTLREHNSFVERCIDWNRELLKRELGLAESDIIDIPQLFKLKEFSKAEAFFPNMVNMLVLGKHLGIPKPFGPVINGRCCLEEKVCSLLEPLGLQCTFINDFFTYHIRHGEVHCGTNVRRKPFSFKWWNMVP

| Structure (SMILES) | IC50 [µM] |
| --- | --- |
| COc1cc(C(=O)N[C@H]2CNCC[C@@H]2F)cc2nc(-c3cc4ccc5nc4n3CCCCCCC(C)(C)C(=O)N[C@@H]5C)n(C)c12 [Example 178, ~{N}-[(3~{S},4~{S})-4-fluoro-3-piperidyl]-7-methoxy-1-methyl-2-[(11~{R})-8,8,11-trimethyl-9-oxo-1,10-diazatricyclo[10.5.2.0^{15,18}]nonadeca-12(19),13,15(18),16-tetraen-17-yl]benzimidazole-5-carboxamide] | 0.05 |
| C[C@H]1NC(=O)C(C)(C)CCCCCCn2c(-c3nc4cc(C(=O)N[C@H]5CNCC[C@@H]5F)c(F)cc4n3C3CC3)cc3ccc1nc32 [Example 179, 1-cyclopropyl-6-fluoro-~{N}-[(3~{S},4~{S})-4-fluoro-3-piperidyl]-2-[(11~{R})-8,8,11-trimethyl-9-oxo-1,10,19-triazatricyclo[10.5.2.0^{15,18}]nonadeca-12(19),13,15(18),16-tetraen-17-yl]benzimidazole-5-carboxamide] | 0.062 |
| COc1cc(C(=O)N[C@H]2CNCC[C@@H]2F)cc2nc(-c3cc4ccc5nc4n3CCCCCc3c(cnn3C)C(=O)N[C@@H]5C)n(C)c12 [Example 180, 2-[(2~{R})-2,8-dimethyl-4-oxo-3,7,8,15,21-pentazatetracyclo[13.5.2.0^{5,9}.0^{18,22}]docosa-1(21),5(9),6,16,18(22),19-hexaen-16-yl]-~{N}-[(3~{S},4~{S})-4-fluoro-3-piperidyl]-7-methoxy-1-methyl-benzimidazole-5-carboxamide] | 0.075 |
| COc1cc(C(=O)N[C@H]2CNCC[C@@H]2F)cc2nc(-c3cc4ccc5nc4n3CCCCCc3cnn(C)c3C(=O)N[C@@H]5C)n(C)c12 [Example 181, 2-[(2~{R})-2,6-dimethyl-4-oxo-3,6,7,15,21-pentazatetracyclo[13.5.2.0^{5,9}.0^{18,22}]docosa-1(21),5(9),7,16,18(22),19-hexaen-16-yl]-~{N}-[(3~{S},4~{S})-4-fluoro-3-piperidyl]-7-methoxy-1-methyl-benzimidazole-5-carboxamide] | 0.171 |
| C[C@H]1NC(=O)[C@@H]2C[C@H]2CCCCCn2c(-c3nc4cc(C(=O)N[C@H]5CNCC[C@@H]5F)c(F)cc4n3C3CC3)cc3ccc1nc32 [Example 182, 1-cyclopropyl-6-fluoro-~{N}-[(3~{S},4~{S})-4-fluoro-3-piperidyl]-2-[(2~{R},5~{R},7~{R})-2-methyl-4-oxo-3,13,19-triazatetracyclo[11.5.2.0^{5,7}.0^{16,20}]icosa-1(19),14,16(20),17-tetraen-14-yl]benzimidazole-5-carboxamide] | 0.031 |
| COc1cc(C(=O)N[C@H]2CNCC[C@@H]2F)cc2nc(-c3cc4ccc5nc4n3CCCCCc3nnn(C)c3C(=O)N[C@@H]5C)n(C)c12 [Example 183, 2-[(2~{R})-2,6-dimethyl-4-oxo-3,6,7,8,15,21-hexazatetracyclo[13.5.2.0^{5,9}.0^{18,22}]docosa-1(21),5(9),7,16,18(22),19-hexaen-16-yl]-~{N}-[(3~{S},4~{S})-4-fluoro-3-piperidyl]-7-methoxy-1-methyl-benzimidazole-5-carboxamide] | 0.121 |
| COc1cc(C(=O)N[C@H]2CNCC[C@@H]2F)cc2nc(-c3cc4ccc5nc4n3CCCCC[C@@H]3C[C@H]3C(=O)N[C@@H]5C)n(C)c12 [Example 184, ~{N}-[(3~{S},4~{S})-4-fluoro-3-piperidyl]-7-methoxy-1-methyl-2-[(2~{R},5~{R},7~{R})-2-methyl-4-oxo-3,13,19-triazatetracyclo[11.5.2.0^{5,7}.0^{16,20}]icosa-1(19),14,16(20),17-tetraen-14-yl]benzimidazole-5-carboxamide] | 0.042 |
| COc1cc(C(=O)N[C@H]2CNCC[C@@H]2F)cc2nc(-c3cc4ccc5nc4n3CCCCCc3nn(C)nc3C(=O)N[C@@H]5C)n(C)c12 [Example 185, 2-[(2~{R})-2,7-dimethyl-4-oxo-3,6,7,8,15,21-hexazatetracyclo[13.5.2.0^{5,9}.0^{18,22}]docosa-1(21),5,8,16,18(22),19-hexaen-16-yl]-~{N}-[(3~{S),4~{S})-4-fluoro-3-piperidyl]-7-methoxy-1-methyl-benzimidazole-5-carboxamide] | 0.066 |
| COc1cc(C(=O)N[C@H]2CNCC[C@@H]2F)cc2nc(-c3cc4ccc5nc4n3CC(F)(F)CCCc3ccccc3C(=O)N[C@@H]5C)n(C)c12 [Example 186, 2-[(2~{R})-14,14-difluoro-2-methyl-4-oxo-3,16,22-triazatetracyclo[14.5.2.0^{5,10}.0^{19,23}]tricosa-1(22),5(10),6,8,17,19(23),20-heptaen-17-yl]-~{N}-[(3~{S},4~{S})-4-fluoro-3-piperidyl]-7-methoxy-1-methyl-benzimidazole-5-carboxamide] | 0.139 |
| COc1cc(C(=O)N[C@H]2CNCC[C@@H]2F)cc2nc(-c3cc4ccc5nc4n3CCCCC[C@H]3C[C@]3(C)C(=O)N[C@@H]5C)n(C)c12 [Example 187, 2-[(2~{R},5~{S},7~{S})-2,5-dimethyl-4-oxo-3,13,19-triazatetracyclo[11.5.2.0^{5,7}.0^{16,20}]icosa-1(19),14,16(20),17-tetraen-14-yl]-~ {N}-[(3~{S},4~{S})-4-fluoro-3-piperidyl]-7-methoxy-1-methyl-benzimidazole-5-carboxamide] | 0.109 |
| C[C@H]1NC(=O)[C@@H]2C[C@H]2CCCCCn2c(-c3nc4cc(C(=O)N[C@H]5CNCC[C@@H]5F)cnc4n3C)cc3ccc1nc32 [Example 188, ˜{N}-[(3˜{S},4˜{S})-4-fluoro-3-piperidyl]-3-methyl-2-[(2˜{R},5˜{R},7˜{R})-2-methyl-4-oxo-3,13,19-triazatetracyclo[11.5.2.0^{5,7}.0^{16,20}]icosa-1(19),14,16(20),17-tetraen-14-yl]imidazo[4,5-b]pyridine-6-carboxamide] | 0.049 |
| C[C@H]1NC(=O)[C@@H]2C[C@H]2CCCC(F)(F)Cn2c(-c3nc4cc(C(=O)N[C@H]5CNCC[C@@H]5F)c(F)c(F)c4n3C3CC3)cc3ccc1nc32 [Example 189, 1-cyclopropyl-2-[(2~{R},5~{R},7~{R})-11,11-difluoro-2-methyl-4-oxo-3,13,19-triazatetracyclo[11.5.2.0^{5,7}.0^{16,20}]icosa-1(19),14,16(20),17-tetraen-14-yl]-6,7-difluoro-~{N}-[(3~{S},4~{S})-4-fluoro-3-piperidyl]benzimidazole-5-carboxamide] | 0.033 |
| COc1cc(C(=O)N2CC[C@H]3OCCN[C@H]3C2)cc2nc(-c3cc4ccc5cc4n3CCCCCCC(C)(C)C(=O)N[C@@H]5C)n(C)c12 [Example 190, (11~{R})-17-[5-[(4~{a}~{S},8~{a}~{R})-2,3,4,4~{a},5,7,8,8~{a}-octahydropyrido[4,3-b][1,4]oxazine-6-carbonyl]-7-methoxy-1-methyl-benzimidazol-2-yl]-8,8,11-trimethyl-1,10-diazatricyclo[10.5.2.0^{15,18}]nonadeca-12(19),13,15(18),16-tetraen-9-one] | 0.094 |
| COc1cc(C(=O)N[C@H]2CNCCC2(F)F)cc2nc(-c3cc4ccc5cc4n3CCCCCCC(C)(C)C(=O)N[C@@H]5C)n(C)c12 [Example 191, ~{N}-[(3~{S})-4,4-difluoro-3-piperidyl]-7-methoxy-1-methyl-2-[(11~{R})-8,8,11-trimethyl-9-oxo-1,10-diazatricyclo[10.5.2.0^{15,18}]nonadeca-12(19),13,15(18),16-tetraen-17-yl]benzimidazole-5-carboxamide] | 0.14 |
